The results in this text go back to patent US20080200454A1, “CARBON-LINKED TETRAHYDRO-PYRAZOLO-PYRIDINE MODULATORS OF CATHEPSIN S” (priority 2007, published 2008).

pIC50: −log10 of the molar value.

The target in one experiment is Recombinant human cathepsin S (CatS) (Homo sapiens, UniProt P25774). Briefly: Recombinant human cathepsin S (CatS) inhibition assay, fluorogenic substrate Z-Valine-Valine-Arginine-AMC.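 Note: Baculovirus-expressed CatS in pH 5.0 sodium acetate buffer with DTT and NaCl, fluorescence read each minute over 20 min, inhibition derived from rate slope.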
Sequence of Recombinant human cathepsin S (CatS) (P25774 115-331): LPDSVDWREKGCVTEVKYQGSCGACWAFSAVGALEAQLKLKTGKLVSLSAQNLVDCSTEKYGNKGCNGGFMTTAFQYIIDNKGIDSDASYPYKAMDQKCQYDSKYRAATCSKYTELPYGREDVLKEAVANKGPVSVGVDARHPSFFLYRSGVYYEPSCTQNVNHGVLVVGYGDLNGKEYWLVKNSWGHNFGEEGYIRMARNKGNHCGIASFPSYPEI
Conditions: not given
In general, pIC50 refers to the IC50 on a negative log10 scale, so that one unit is a factor of ten. For `NC(=O)C(=O)N1CCc2c(c(-c3ccc(Cl)c(C#Cc4ccc(CNCc5ccc(Cl)cc5)cc4)c3)nn2C[C@@H](O)CN2CCOCC2)C1` [Example 253, (S)-2-[3-(4-Chloro-3-{4-[(4-chloro-benzylamino)-methyl]-phenylethynyl}-phenyl)-1-(2-hydroxy-3-morpholin-4-yl-propyl)-1,4,6,7-tetrahydro-pyrazolo[4,3-c]pyridin-5-yl]-2-oxo-acetamide], the pIC50 was 7.22.

For `CS(=O)(=O)N1CCc2c(c(-c3ccc(Cl)c(C#CCc4ccccc4)c3)nn2CCCN2CCOCC2)C1` [Example 41, 3-[4-Chloro-3-(3-phenyl-prop-1-ynyl)-phenyl]-5-methanesulfonyl-1-(3-morpholin-4-yl-propyl)-4,5,6,7-tetrahydro-1H-pyrazolo[4,3-c]pyridine], the negative-log IC50 (pIC50) was 5.40.

Take `CS(=O)(=O)N1CCc2c(c(-c3ccc(Cl)c(C#Cc4ccc(Cl)cc4)c3)nn2CC(O)CN2CCC(N)CC2)C1` (stereo not drawn) [Example 133, 1-(4-Amino-piperidin-1-yl)-3-{3-[4-chloro-3-(4-chloro-phenylethynyl)-phenyl]-5-methanesulfonyl-4,5,6,7-tetrahydro-pyrazolo[4,3-c]pyridin-1-yl}-propan-2-ol]: the pIC50 is 6.54.

Consider `CNCCCNC(=O)c1cc(C#Cc2cc(-c3nn(CCCN4CCOC[C@@H]4C)c4c3CN(C(=O)C(N)=O)CC4)ccc2Cl)ccc1Cl` [Example 273, (S)-5-(5-{5-Aminooxalyl-1-[3-(3-methyl-morpholin-4-yl)-propyl]-4,5,6,7-tetrahydro-1H-pyrazolo[4,3-c]pyridin-3-yl}-2-chloro-phenylethynyl)-2-chloro-N-(3-methylamino-propyl)-benzamide], for which the pIC50 was 7.40.

In the case of `NC(=O)C(=O)N1CCc2c(c(-c3ccc(Cl)c(C#Cc4ccc(CNCc5ccc(Cl)cc5)cc4)c3)nn2CCCN2CCOCC2)C1` [Example 150, 2-[3-(4-Chloro-3-{[4-({[(4-chlorophenyl)methyl]amino}methyl)phenyl]ethynyl}phenyl)-1-(3-morpholin-4-ylpropyl)-1,4,6,7-tetrahydro-5H-pyrazolo[4,3-c]pyridin-5-yl]-2-oxoacetamide], the negative logarithm of the IC50 (pIC50) was 7.10.

As for `CS(=O)(=O)N1CCc2c(c(-c3ccc(Cl)c(C#Cc4ccc(CNCc5ccc(Cl)cc5)cc4)c3)nn2CCCN2CCCCC2)C1` [Example 181, 1-[4-({2-Chloro-5-[5-(methylsulfonyl)-1-(3-piperidin-1-ylpropyl)-4,5,6,7-tetrahydro-1H-pyrazolo[4,3-c]pyridin-3-yl]phenyl}ethynyl)phenyl]-N-[(4-chlorophenyl)methyl]methanamine], the pIC50 is 7.22.

With `COc1cccc(S(=O)(=O)NCCCc2cc(-c3nn(CCCN4CCC(N5CCCC5=O)CC4)c4c3CN(S(C)(=O)=O)CC4)ccc2Cl)c1` [Example 93, N-{3-[2-Chloro-5-(5-methanesulfonyl-1-{3-[4-(2-oxo-pyrrolidin-1-yl)-piperidin-1-yl]-propyl}-4,5,6,7-tetrahydro-1H-pyrazolo[4,3-c]pyridin-3-yl)-phenyl]-propyl}-3-methoxy-benzenesulfonamide], the pIC50 was 5.98.

Staying with this experiment, now noted: CatS IC50.
Take `CS(=O)(=O)N1CCc2c(c(-c3ccc(Cl)c(C#Cc4ccc(CNCc5ccc(Cl)cc5)cc4)c3)nn2CCCN2CCCNCC2)C1` [Example 391, 1-{4-[(2-Chloro-5-{1-[3-(1,4-diazepan-1-yl)propyl]-5-(methylsulfonyl)-4,5,6,7-tetrahydro-1H-pyrazolo[4,3-c]pyridin-3-yl}phenyl)ethynyl]phenyl}-N-[(4-chlorophenyl)methyl]methanamine]: the pIC50 was 6.59.

`CS(=O)(=O)c1ccc(CNCc2cccc(C#Cc3cc(-c4nn(CCCN5CCOCC5)c5c4CN(S(C)(=O)=O)CC5)ccc3Cl)c2)cc1` [Example 524, 1-[3-({2-Chloro-5-[5-(methylsulfonyl)-1-(3-morpholin-4-ylpropyl)-4,5,6,7-tetrahydro-1H-pyrazolo[4,3-c]pyridin-3-yl]phenyl}ethynyl)phenyl]-N-{[4-(methylsulfonyl)phenyl]methyl}methanamine]: the pIC50 is 6.28.

`COC(=O)CNCc1cccc(C#Cc2cc(-c3nn(CCCN4CCOCC4)c4c3CN(S(C)(=O)=O)CC4)ccc2Cl)c1` [Example 188, Methyl N-{[3-({2-chloro-5-[5-(methylsulfonyl)-1-(3-morpholin-4-ylpropyl)-4,5,6,7-tetrahydro-1H-pyrazolo[4,3-c]pyridin-3-yl]phenyl}ethynyl)phenyl]methyl}glycinate]: the pIC50 is 6.26.

On to `COC(=O)[C@@H]1Cc2ccc(C#Cc3cc(-c4nn(CCCN5CCOCC5)c5c4CN(S(C)(=O)=O)CC5)ccc3Cl)cc2CN1` [Example 198, Methyl (3S)-7-({2-chloro-5-[5-(methylsulfonyl)-1-(3-morpholin-4-ylpropyl)-4,5,6,7-tetrahydro-1H-pyrazolo[4,3-c]pyridin-3-yl]phenyl}ethynyl)-1,2,3,4-tetrahydroisoquinoline-3-carboxylate], for which the pIC50 is 7.15.

As to `CS(=O)(=O)N1CCc2c(c(-c3ccc(Cl)c(C#Cc4cccc(CNCc5cccnc5)c4)c3)nn2CCCN2CCOCC2)C1` [Example 521, 1-[3-({2-Chloro-5-[5-(methylsulfonyl)-1-(3-morpholin-4-ylpropyl)-4,5,6,7-tetrahydro-1H-pyrazolo[4,3-c]pyridin-3-yl]phenyl}ethynyl)phenyl]-N-(pyridin-3-ylmethyl)methanamine], the pIC50 was 6.43.
